{"source": "patent US20240002425A1", "about": "“NOVEL AMINOALKYL GLUCOSAMINIDE 4-PHOSPHATE DERIVATIVE” (DAIICHI SANKYO COMPANY, LIMITED, priority 2020, published 2024)", "format_in_all_cases": "in vivo, mouse", "key": {"[1]": {"system": "mast cell degranulation reaction mediated by anti-Cry j 1 IgE", "test": "Suppression of mast cell degranulation by immune serum-derived IgG", "conditions": "IgG from serum of SLIT mice, 200 ng/mL Cry j 1 stimulation; vs No-SLIT and Japanese Cedar Pollen SLIT groups (FIG. 17)", "experimental": "IgG was purified from 200 μL of serum of each mouse individual of the allergen immunotherapy model in accordance with the protocol of Protein G HP spin trap (Cytiva, 28-9031-34). The solvent in the purified IgG was replaced with 50 μL of Tyrode's solution using Vivaspin 500, 10 kDa MWCO Polyethersulfone (Cytiva, 28-9322-25). Cry j 1 (2×10×200 ng/mL, 1.5 μL, Tyrode's solution) was added to the purified IgG (13.5 μL, Tyrode's solution), and the mixture was left standing at room temperature for 1 hour in the dark. The mast cells sensitized with anti-Cry j 1 IgE were treated with 10 μL of this specimen as a test substance, and the amount of the mast cell degranulation was measured (final concentration: 200 ng/mL, Cry j 1 stimulation)."}, "[2]": {"system": "cervical lymph node immune cells", "test": "Cry j 1-specific cell-mediated immunity assay (cervical lymph node cells)", "parameters": "IFN-7 produced by Cry j 1 stimulation / IL-4 produced by Cry j 1 stimulation: unit not given here", "conditions": "cervical lymph node cells after sublingual administration with Japanese cedar pollen antigen", "experimental": "Cervical lymph node was collected, then pooled for each group, and ground in PBS (1% BSA). The resultant was passed through a 70 μm strainer. […] Cells were recovered with RPMI/FBS/ps, and the number of cells was prepared to 2×5×10^6 cells/mL."}, "[3]": {"system": "Japanese cedar pollen antigen (Cry j 1)", "test": "Immunostimulatory effect on Japanese cedar pollen antigen by sublingual administration (anti-Cry j 1 IgG or IgA)", "conditions": "sublingual with Japanese cedar pollen antigen", "experimental": "The compound described in Example 24 was used to study its immunostimulatory effect on a Japanese cedar pollen antigen by sublingual administration.\nAllergen sensitization was performed by subcutaneously administering 50 μL of Japanese cedar pollen antigen extracts (allergen scratch extracts “Torii” Japanese cedar pollen, Torii Pharmaceutical Co., Ltd.) to the mouse tail root 3 and 1 weeks before the start of sublingual administration. Blood was collected 4 days after the second sensitization, and anti-Cry j 1 IgG was measured in accordance with the subsequent section. Mice were grouped such that their measured values were evenly distributed among the groups. Sublingual administration (sublingual allergen immunotherapy model) was started from 3 days thereafter.\nThe antigen used was a Japanese cedar pollen antigen (5000 JAU CEDARCURE®, Torii Pharmaceutical Co., Ltd.) dissolved in 100 μL of PBS. The compound of Example 24 was dissolved in injectable water (Otsuka Pharmaceutical Co., Ltd.) to prepare a 5 mg/mL solution. The antigen and the compound of Example 24 were mixed in equal amounts immediately before administration.\nEach mouse was allowed to refrain from eating and drinking from 1 hour before sublingual administration. […]\n25 μL of 10 μg/mL ImmunoPure Streptavidin (Thermo Fisher Scientific Inc., Cat No. 21125) was added to each well of 96 Well Micro Plate (Corning, Inc., Cat No. 3690), which was then left standing overnight at 4° C. […] The plate was left standing at room temperature for 10 minutes, and 30 μL of TMB Stop Solution was then added to each well, followed by the measurement of absorbance at 450 nm.\nPositive serum was used as a standard specimen of serum, and anti-Cry j 1 IgG or IgA contained therein was set to 1000 units/mL. […] An evaluation specimen was diluted 1000-fold with an ELISA solution and measured, and the unit value of anti-Cry j 1 IgG or IgA in the evaluation specimen was determined using the calibration curve. […]"}}}
{"smiles": "CCCCCCCCCCC[C@H](CC(=O)N[C@@H](CO[C@@H]1O[C@H](CO[C@]2(C(=O)O)C[C@@H](O)[C@@H](O)[C@@H]([C@H](O)CO)O2)[C@@H](OP(=O)(O)O)[C@H](OC(=O)C[C@@H](CCCCCCCCCCC)OC(=O)CCCCCCCCC)[C@H]1NC(=O)C[C@@H](CCCCCCCCCCC)OC(=O)CCCCCCCCC)CC(=O)O)OC(=O)CCCCCCCCC.CNC[C@H](O)[C@@H](O)[C@H](O)[C@H](O)CO.CNC[C@H](O)[C@@H](O)[C@H](O)[C@H](O)CO.CNC[C@H](O)[C@@H](O)[C@H](O)[C@H](O)CO.CNC[C@H](O)[C@@H](O)[C@H](O)[C@H](O)CO", "note": "[Example 24, Tetrameglumine (3R)-3-{[(3R)-3-(decanoyloxy)tetradecanoyl]amino}-4-({3-O-[(3R)-3-(decanoyloxy)tetradecanoyl]-2-{[(3R)-3-(decanoyloxy)tetradecanoyl]amino}-2-deoxy-6-O-(3-deoxy-α-D-manno-oct-2-ulopyranonosyl)-4-O-phosphono-β-D-glucopyranosyl}oxy)butanoate]", "values": [{"measurement": "mast cell degranulation with IgG purified from mouse serum", "setting": "[1]", "value": "suppressed"}, {"measurement": "IL-10 produced by Cry j 1 stimulation", "setting": "[2]; 44 hours culture (FIG. 12)", "value": "strongly induced"}, {"measurement": "IFN-7 produced by Cry j 1 stimulation", "setting": "[2]; 44 hours culture (FIG. 13)", "value": "≤ 9.77"}, {"measurement": "IL-4 produced by Cry j 1 stimulation", "setting": "[2]; 44 hours culture (FIG. 14)", "value": "≤ 9.77"}, {"measurement": "anti-Cry j 1 IgA in nasal wash", "setting": "[3]; 5 weeks (FIG. 11)", "value": "induced at a high level"}, {"measurement": "anti-Cry j 1 IgG in serum", "setting": "[3]; vs No-SLIT and Japanese Cedar Pollen SLIT groups (FIG. 9)", "value": "induced at a higher level"}, {"measurement": "anti-Cry j 1 IgA in serum", "setting": "[3]; vs No-SLIT and Japanese Cedar Pollen SLIT groups (FIG. 10)", "value": "induced at a higher level"}]}
